Results as given in ChEMBL document CHEMBL1126964, “Antibacterial activity of long-chain alcohols: the role of hydrophobic alkyl groups” (1993).
≈ marks a conversion by molar mass, not a printed value.

Legend:
Cutibacterium acnes = assay: Minimum inhibitory concentration against Propionibacterium acnes was determined; format: functional
Staphylococcus aureus = assay: Minimum inhibitory concentration against Staphylococcus aureus was determined; format: functional

| SMILES | MIC (Cutibacterium acnes) [µg/mL] | MIC (Staphylococcus aureus) [µg/mL] |
| --- | --- | --- |
| CCCCCCCCCCCCCCCCO [CETYL ALCOHOL] | 0.78 (≈ 3.22 µM) | > 800 |
| CCCCCCCO [1-HEPTANOL] | 400 (≈ 3440 µM) | > 800 |
| CCCCCCCCO [OCTANOL] | 200 (≈ 1540 µM) | 800 (≈ 6140 µM) |
| CCCCCCCCCO [NONANOL] | 100 (≈ 693 µM) | 200 (≈ 1390 µM) |
| CCCCCCCCCCCCCCCCCCCCO [1-EICOSANOL] | > 800 | > 800 |
| CCCCCCCCCCCO [UNDECANOL] | 12.5 (≈ 72.5 µM) | 25 (≈ 145 µM) |
| CCCCCCCCCCCCCCO [MYRISTYL ALCOHOL] | 1.56 (≈ 7.28 µM) | > 800 |
| CCCCCCCCCCCCCCCO | 0.78 (≈ 3.41 µM) | > 800 |
| CCCCCCCCCCCCCO [TRIDECAN-1-OL] | 1.56 (≈ 7.79 µM) | > 800 |
| CCCCCCCCCCO [DECANOL] | 25 (≈ 158 µM) | 50 (≈ 316 µM) |
| CCCCCCCCCCCCCCCCCCO [CETOSTEARYL ALCOHOL] | > 800 | > 800 |
| CCCCCCCCCCCCO [DODECANOL] | 3.13 (≈ 16.8 µM) | 6.25 (≈ 33.5 µM) |
| CCCCCCCCCCCCCCCCCO | > 800 | > 800 |

The next lines start with the values.

| MIC (Cutibacterium acnes) [µg/mL] | MIC (Staphylococcus aureus) [µg/mL] | SMILES |
| --- | --- | --- |
| 25 (≈ 127 µM) | 50 (≈ 255 µM) | CC(C)=CCC/C(C)=C/CCC(C)O (stereo not given) |
| > 800 | > 800 | C=CC(C)(O)CCC=C(C)C (stereo not given) [LINALOOL] |
| 6.25 (≈ 28.1 µM) | 6.25 (≈ 28.1 µM) | CC(C)=CCC/C(C)=C/CC/C(C)=C/CO [FARNESOL] |
| > 800 | > 800 | CCCCCCO [1-HEXANOL] |
| 400 (≈ 2590 µM) | 800 (≈ 5190 µM) | CC(C)=CCC/C(C)=C/CO [GERANIOL] |
| 1.56 (≈ 5.9 µM) | > 800 | CC(C)=CCC/C(C)=C/CC/C(C)=C/CCC(C)O (stereo not given) |
| 25 (≈ 112 µM) | 50 (≈ 225 µM) | C=CC(C)(O)CC/C=C(\C)CCC=C(C)C (stereo not given) [NEROLIDOL] |
